Experimental data taken from patent publication US20240132431A1, “METHOD FOR ALKYLATING ACIDIC FUNCTIONAL GROUP” (Chugai Seiyaku Kabushiki Kaisha, priority 2021, published 2024).

Molecular target: T1, Bcl-2 protein (Recombinant Human Bcl-2 Protein) (Homo sapiens, UniProt P10415)
T1 construct: purchased Novus NBP2-34889
Assay: Binding evaluation of mixture library compounds to Bcl-2 using AS-MS (affinity selection mass spectrometry)
Conditions: AS-MS on the mixture of 1200 library compounds, ASMS Ratio(%)=(A−C)/B×100; for ASMS ratio (%) n = 1: replicate n = 1; for ASMS ratio (%) n = 2: replicate n = 2
Summary of the method: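 Affinity selection MS: Bcl-2 20 μM + 1200-cpd mixture, […]/cpd, Tris pH 7.4 buffer w/ Tween-20, DTT; 1 h 23° C dark; P-2 spin SEC; MeCN/MeOH extraction; RP LC/MS. ASMS Ratio(%) = (A−C)/B×100.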

T1 sequence (P10415 whole entry): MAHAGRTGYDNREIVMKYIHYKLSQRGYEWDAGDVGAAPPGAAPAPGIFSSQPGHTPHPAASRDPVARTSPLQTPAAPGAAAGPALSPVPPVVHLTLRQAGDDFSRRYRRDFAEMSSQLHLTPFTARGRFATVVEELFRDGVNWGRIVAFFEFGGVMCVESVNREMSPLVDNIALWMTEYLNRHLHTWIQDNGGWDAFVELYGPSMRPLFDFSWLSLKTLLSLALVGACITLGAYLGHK

Row | SMILES | ASMS ratio (%) n = 1 | ASMS ratio (%) n = 2
1 | CCOc1cncc(C#Cc2ccccc2C(=O)N2CCN(c3ccc(C(=O)N(CC)CC)cc3)CC2)c1 [B4J030-01, 4-[4-[2-[2-(5-Ethoxypyridin-3-yl)ethynyl]benzoyl]piperazin-1-yl]-N,N-diethylbenzamide] | 0.1% | 0.8%
2 | CCOc1cccc(C#Cc2cncc(C(=O)N3CCN(c4ccc(C(=O)N(CC)CC)cc4)CC3)c2)c1 [B4J031-01, 4-[4-[5-[2-(3-Ethoxyphenyl)ethynyl]pyridine-3-carbonyl]piperazin-1-yl]-N,N-diethylbenzamide] | 0.1% | 0.8%
3 | CCOc1cncc(C#Cc2cncc(C(=O)N3CCN(c4ccc(C(=O)N(CC)CC)cc4)CC3)c2)c1 [B4J032-01, 4-[4-[5-[2-(5-Ethoxypyridin-3-yl)ethynyl]pyridine-3-carbonyl]piperazin-1-yl]-N,N-diethylbenzamide] | −7.2% | 1.5%
4 | CCOc1cccc(-c2ccccc2CCC(=O)N2CCN(c3ccc(C(=O)N(CC)CC)cc3)CC2)c1 [B4J033-01, 4-[4-[3-[2-(3-Ethoxyphenyl)phenyl]propanoyl]piperazin-1-yl]-N,N-diethylbenzamide] | 0.0% | −0.9%
5 | CCOc1cncc(-c2ccccc2CCC(=O)N2CCN(c3ccc(C(=O)N(CC)CC)cc3)CC2)c1 [B4J034-01, 4-[4-[3-[2-(5-Ethoxypyridin-3-yl)phenyl]propanoyl]piperazin-1-yl]-N,N-diethylbenzamide] | −0.7% | 0.9%
6 | CCOc1cccc(-c2ccc(C(=O)N3CCN(c4ccc(C(=O)N(CC)CC)cc4)CC3)c3ccccc23)c1 [B4J035-01, 4-[4-[4-(3-Ethoxyphenyl)naphthalene-1-carbonyl]piperazin-1-yl]-N,N-diethylbenzamide] | 4.1% | 1.5%
7 | CCOc1cncc(-c2ccc(C(=O)N3CCN(c4ccc(C(=O)N(CC)CC)cc4)CC3)c3ccccc23)c1 [B4J036-01, 4-[4-[4-(5-Ethoxypyridin-3-yl)naphthalene-1-carbonyl]piperazin-1-yl]-N,N-diethylbenzamide] | −0.3% | −1.6%
8 | CCOc1cccc(-c2cc(C(=O)N3CCN(c4ccc(C(=O)N(CC)CC)cc4)CC3)cc(C(C)(C)C)c2)c1 [B4J037-01, 4-[4-[3-tert-Butyl-5-(3-ethoxyphenyl)benzoyl]piperazin-1-yl]-N,N-diethylbenzamide] | 2.7% | −1.5%
9 | CCOc1cncc(-c2cc(C(=O)N3CCN(c4ccc(C(=O)N(CC)CC)cc4)CC3)cc(C(C)(C)C)c2)c1 [B4J038-01, 4-[4-[3-tert-Butyl-5-(5-ethoxypyridin-3-yl)benzoyl]piperazin-1-yl]-N,N-diethylbenzamide] | 0.8% | 0.0%
10 | CCOc1cccc(-c2cc(C(=O)N3CCN(c4ccc(C(=O)N(CC)CC)cc4)CC3)cc(C(F)(F)F)c2)c1 [B4J039-01, 4-[4-[3-(3-Ethoxyphenyl)-5-(trifluoromethyl)benzoyl]piperazin-1-yl]-N,N-diethylbenzamide] | 2.2% | 0.1%
11 | CCOc1cncc(-c2cc(C(=O)N3CCN(c4ccc(C(=O)N(CC)CC)cc4)CC3)cc(C(F)(F)F)c2)c1 [B4J040-01, 4-[4-[3-(5-Ethoxypyridin-3-yl)-5-(trifluoromethyl)benzoyl]piperazin-1-yl]-N,N-diethylbenzamide] | −0.5% | −1.2%
12 | CCOc1cccc(C#Cc2cc(C(=O)N3CCN(c4ccc(C(=O)N(CC)CC)cc4)CC3)cc(C(F)(F)F)c2)c1 [B4J041-01, 4-[4-[3-[2-(3-Ethoxyphenyl)ethynyl]-5-(trifluoromethyl)benzoyl]piperazin-1-yl]-N,N-diethylbenzamide] | 2.8% | 1.7%
13 | CCOc1cncc(C#Cc2cc(C(=O)N3CCN(c4ccc(C(=O)N(CC)CC)cc4)CC3)cc(C(F)(F)F)c2)c1 [B4J042-01, 4-[4-[3-[2-(5-Ethoxypyridin-3-yl)ethynyl]-5-(trifluoromethyl)benzoyl]piperazin-1-yl]-N,N-diethylbenzamide] | 1.0% | 0.0%
14 | CCOc1cccc(-c2cnn(-c3cc(C(=O)N4CCN(c5ccc(C(=O)N(CC)CC)cc5)CC4)cc(C(F)(F)F)c3)c2)c1 [B4J043-01, 4-[4-[3-[4-(3-Ethoxyphenyl)pyrazol-1-yl]-5-(trifluoromethyl)benzoyl]piperazin-1-yl]-N,N-diethylbenzamide] | 3.8% | 3.2%
15 | CCOc1cncc(-c2cnn(-c3cc(C(=O)N4CCN(c5ccc(C(=O)N(CC)CC)cc5)CC4)cc(C(F)(F)F)c3)c2)c1 [B4J044-01, 4-[4-[3-[4-(5-Ethoxypyridin-3-yl)pyrazol-1-yl]-5-(trifluoromethyl)benzoyl]piperazin-1-yl]-N,N-diethylbenzamide] | 1.8% | 0.3%
16 | CCOc1cccc(-c2ccccc2CN2CCN(c3ccc(C(=O)N(CC)CC)cc3)CC2)c1 [B4J045-01, 4-[4-[[2-(3-Ethoxyphenyl)phenyl]methyl]piperazin-1-yl]-N,N-diethylbenzamide] | 1.1% | 0.3%
17 | CCOc1cncc(-c2ccccc2CN2CCN(c3ccc(C(=O)N(CC)CC)cc3)CC2)c1 [B4J046-01] | 0.0% | 0.0%
18 | CCOc1cccc(-c2ccc(CN3CCN(c4ccc(C(=O)N(CC)CC)cc4)CC3)cc2C)c1 [B4J047-01, 4-[4-[[4-(3-Ethoxyphenyl)-3-methylphenyl]methyl]piperazin-1-yl]-N,N-diethylbenzamide] | −6.6% | 0.0%
19 | CCOc1cncc(-c2ccc(CN3CCN(c4ccc(C(=O)N(CC)CC)cc4)CC3)cc2C)c1 [B4J048-01, 4-[4-[[4-(5-Ethoxypyridin-3-yl)-3-methylphenyl]methyl]piperazin-1-yl]-N,N-diethylbenzamide] | 1.2% | −2.1%
20 | CCOc1cccc(-c2ccc(CN3CCN(c4ccc(C(=O)N(CC)CC)cc4)CC3)c(CC)c2)c1 [B4J049-01, 4-[4-[[4-(3-Ethoxyphenyl)-2-ethylphenyl]methyl]piperazin-1-yl]-N,N-diethylbenzamide] | 7.1% | −1.4%
21 | CCOc1cncc(-c2ccc(CN3CCN(c4ccc(C(=O)N(CC)CC)cc4)CC3)c(CC)c2)c1 [B4J050-01, 4-[4-[[4-(5-Ethoxypyridin-3-yl)-2-ethylphenyl]methyl]piperazin-1-yl]-N,N-diethylbenzamide] | 2.1% | 0.6%
22 | CCOc1cccc(-c2ccc(CN3CCN(c4ccc(C(=O)N(CC)CC)cc4)CC3)cc2F)c1 [B4J051-01, 4-[4-[[4-(3-Ethoxyphenyl)-3-fluorophenyl]methyl]piperazin-1-yl]-N,N-diethylbenzamide] | −9.6% | −10.2%
23 | CCOc1cncc(-c2ccc(CN3CCN(c4ccc(C(=O)N(CC)CC)cc4)CC3)cc2F)c1 [B4J052-01] | 0.5% | −1.5%
